In PubChem BioAssay AID2060485 (Molecular Pharmacology Branch, DTP, NCI, 2025):

Tested on: A375 multi-cell spheroids with HUVEC/MSC, viability
Assay: Anticancer human tumor A375 cell line growth inhibition [GQUAD];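 note: spheroids exposed to compounds for seven days before readout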
Conditions: for IC50: curve of first compound; for viability, T/C: stronger effect = lower value
Procedure, shortened: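 Tumor cells were grown as complex spheroids with HUVEC endothelial cells and mesenchymal stem cells as stroma. G-quadruplex stabilizers were combined with targeted agents over half-log dilutions from near the clinical Cmax, or from 10 microM.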

[1] = second compound 0.0316 µM, first compound 0.0316 µM
[2] = second compound 0.0316 µM, first compound 0.316 µM
[3] = second compound 0.1 µM, first compound 0.0316 µM
[4] = second compound 0.1 µM, first compound 0.316 µM
[5] = second compound 0.316 µM, first compound 0.0316 µM
[6] = second compound 0.316 µM, first compound 0.316 µM
[7] = second compound 1 µM, first compound 0.0316 µM
[8] = second compound 1 µM, first compound 0.316 µM
[9] = second compound 3.16 µM, first compound 0.0316 µM
[10] = second compound 3.16 µM, first compound 0.316 µM
[11] = second compound 10 µM, first compound 0.0316 µM
[12] = second compound 10 µM, first compound 0.316 µM
[13] = second compound 0.0316 µM, first compound 0.000999 µM
[14] = second compound 0.0316 µM, first compound 0.00316 µM
[15] = second compound 0.0316 µM, first compound 0.00999 µM
[16] = second compound 0.0316 µM, first compound 0.0999 µM
[17] = second compound 0.1 µM, first compound 0.000999 µM
[18] = second compound 0.1 µM, first compound 0.00316 µM
[19] = second compound 0.1 µM, first compound 0.00999 µM
[20] = second compound 0.1 µM, first compound 0.0999 µM
[21] = second compound 0.316 µM, first compound 0.000999 µM
[22] = second compound 0.316 µM, first compound 0.00316 µM
[23] = second compound 0.316 µM, first compound 0.00999 µM
[24] = second compound 0.316 µM, first compound 0.0999 µM
[25] = second compound 1 µM, first compound 0.000999 µM
[26] = second compound 1 µM, first compound 0.00316 µM
[27] = second compound 1 µM, first compound 0.00999 µM
[28] = second compound 1 µM, first compound 0.0999 µM
[29] = second compound 3.16 µM, first compound 0.000999 µM
[30] = second compound 3.16 µM, first compound 0.00316 µM
[31] = second compound 3.16 µM, first compound 0.00999 µM
[32] = second compound 3.16 µM, first compound 0.0999 µM
[33] = second compound 10 µM, first compound 0.000999 µM
[34] = second compound 10 µM, first compound 0.00316 µM
[35] = second compound 10 µM, first compound 0.00999 µM
[36] = second compound 10 µM, first compound 0.0999 µM

C=CC(=O)N1CCN(c2nc(=O)n(-c3c(C)ccnc3C(C)C)c3nc(-c4c(O)cccc4F)c(F)cc23)C(C)C1 (stereo unspecified) + Cc1cnc(CNC(=O)c2c(=O)c3ccc(N4CCCN(C)CC4)nc3n3c2sc2ccccc23)cn1
IC50 (second compound 0.0316 µM): > 10000 nM | IC50 (second compound 0.1 µM): > 10000 nM | IC50 (second compound 0.316 µM): > 10000 nM | IC50 (second compound 1 µM): < 31.6 nM | IC50 (second compound 3.16 µM): < 31.6 nM | IC50 (second compound 10 µM): < 31.6 nM | viability, T/C [1]: 94.5% | viability, T/C (second compound 0.0316 µM, first compound 0.1 µM): 103% | viability, T/C [2]: 109% | viability, T/C (second compound 0.0316 µM, first compound 1 µM): 106% | viability, T/C (second compound 0.0316 µM, first compound 3.16 µM): 145% | viability, T/C (second compound 0.0316 µM, first compound 10 µM): 129% | viability, T/C [3]: 86.7% | viability, T/C (second compound 0.1 µM, first compound 0.1 µM): 77.3% | viability, T/C [4]: 92.9% | viability, T/C (second compound 0.1 µM, first compound 1 µM): 82.3% | viability, T/C (second compound 0.1 µM, first compound 3.16 µM): 95% | viability, T/C (second compound 0.1 µM, first compound 10 µM): 83.2% | viability, T/C [5]: 51.6% | viability, T/C (second compound 0.316 µM, first compound 0.1 µM): 56.6% | viability, T/C [6]: 55.4% | viability, T/C (second compound 0.316 µM, first compound 1 µM): 57% | viability, T/C (second compound 0.316 µM, first compound 3.16 µM): 59.2% | viability, T/C (second compound 0.316 µM, first compound 10 µM): 58% | viability, T/C [7]: 42.4% | viability, T/C (second compound 1 µM, first compound 0.1 µM): 47.9% | viability, T/C [8]: 48.8% | viability, T/C (second compound 1 µM, first compound 1 µM): 48.6% | viability, T/C (second compound 1 µM, first compound 3.16 µM): 45.1% | viability, T/C (second compound 1 µM, first compound 10 µM): 40.2% | viability, T/C [9]: 34.9% | viability, T/C (second compound 3.16 µM, first compound 0.1 µM): 32.5% | viability, T/C [10]: 32.7% | viability, T/C (second compound 3.16 µM, first compound 1 µM): 36.4% | viability, T/C (second compound 3.16 µM, first compound 3.16 µM): 37.6% | viability, T/C (second compound 3.16 µM, first compound 10 µM): 34.1% | viability, T/C [11]: 28.8% | viability, T/C (second compound 10 µM, first compound 0.1 µM): 32.9% | viability, T/C [12]: 33% | viability, T/C (second compound 10 µM, first compound 1 µM): 33.5% | viability, T/C (second compound 10 µM, first compound 3.16 µM): 31.6% | viability, T/C (second compound 10 µM, first compound 10 µM): 28.5%

CC[C@@]1(O)C(=O)OCc2c1cc1n(c2=O)Cc2cc3c(CN(C)C)c(O)ccc3nc2-1 + Cc1cnc(CNC(=O)c2c(=O)c3ccc(N4CCCN(C)CC4)nc3n3c2sc2ccccc23)cn1
IC50 (second compound 0.0316 µM): 28.5 nM | IC50 (second compound 0.1 µM): 16 nM | IC50 (second compound 0.316 µM): < 0.999 nM | IC50 (second compound 1 µM): < 0.999 nM | IC50 (second compound 3.16 µM): < 0.999 nM | IC50 (second compound 10 µM): < 0.999 nM | viability, T/C [13]: 114% | viability, T/C [14]: 103% | viability, T/C [15]: 107% | viability, T/C [1]: 44.1% | viability, T/C [16]: 17.8% | viability, T/C [2]: 11.3% | viability, T/C [17]: 76.2% | viability, T/C [18]: 64.3% | viability, T/C [19]: 64.3% | viability, T/C [3]: 31.4% | viability, T/C [20]: 20.5% | viability, T/C [4]: 11.8% | viability, T/C [21]: 48.6% | viability, T/C [22]: 42.5% | viability, T/C [23]: 45.3% | viability, T/C [5]: 27.6% | viability, T/C [24]: 17% | viability, T/C [6]: 13.9% | viability, T/C [25]: 39.8% | viability, T/C [26]: 38.9% | viability, T/C [27]: 29.9% | viability, T/C [7]: 29.1% | viability, T/C [28]: 19.1% | viability, T/C [8]: 13% | viability, T/C [29]: 30.5% | viability, T/C [30]: 29.8% | viability, T/C [31]: 30.3% | viability, T/C [9]: 25.4% | viability, T/C [32]: 17.6% | viability, T/C [10]: 14.7% | viability, T/C [33]: 23.6% | viability, T/C [34]: 30.3% | viability, T/C [35]: 30.8% | viability, T/C [11]: 23.9% | viability, T/C [36]: 18.7% | viability, T/C [12]: 15.6%

CCc1c2c(nc3ccc(O)cc13)-c1cc3c(c(=O)n1C2)COC(=O)[C@]3(O)CC + Cc1cnc(CNC(=O)c2c(=O)c3ccc(N4CCCN(C)CC4)nc3n3c2sc2ccccc23)cn1
IC50 (second compound 0.0316 µM): < 0.999 nM | IC50 (second compound 0.1 µM): < 0.999 nM | IC50 (second compound 0.316 µM): < 0.999 nM | IC50 (second compound 1 µM): < 0.999 nM | IC50 (second compound 3.16 µM): < 0.999 nM | IC50 (second compound 10 µM): < 0.999 nM | viability, T/C [13]: 33.5% | viability, T/C [14]: 15.6% | viability, T/C [15]: 15.1% | viability, T/C [1]: 13.5% | viability, T/C [16]: 5.18% | viability, T/C [2]: 0.45% | viability, T/C [17]: 26.9% | viability, T/C [18]: 14.8% | viability, T/C [19]: 15.6% | viability, T/C [3]: 15.2% | viability, T/C [20]: 5.86% | viability, T/C [4]: 0.41% | viability, T/C [21]: 26.3% | viability, T/C [22]: 17.1% | viability, T/C [23]: 14.8% | viability, T/C [5]: 11.9% | viability, T/C [24]: 4.76% | viability, T/C [6]: 0.14% | viability, T/C [25]: 22% | viability, T/C [26]: 15.4% | viability, T/C [27]: 14.2% | viability, T/C [7]: 10.1% | viability, T/C [28]: 4.05% | viability, T/C [8]: 0.08% | viability, T/C [29]: 19.4% | viability, T/C [30]: 15.9% | viability, T/C [31]: 14.4% | viability, T/C [9]: 9.47% | viability, T/C [32]: 0.08% | viability, T/C [10]: 0.1% | viability, T/C [33]: 18.4% | viability, T/C [34]: 16% | viability, T/C [35]: 14.6% | viability, T/C [11]: 7.32% | viability, T/C [36]: 0.15% | viability, T/C [12]: 0.15%
